Measured values taken from US20240279684A1, “CYTOSOLIC DELIVERY OF GENOME EDITING TOOLS” (SAPREME TECHNOLOGIES B.V., priority 2021, published 2024).

Columns and labels:
[1] = test system: cells with which the nanoplexes are contacted; assay: Toxicity of saponin towards cells during transfection; format: cell-based
Text: It is part of the invention that the method or the use of the invention is characterized in that the nanoparticle comprises the nanoparticle-forming compound, such as a peptide, such as poly-lysine, and the nucleic acid in a mass ratio in a range of 3:1 to 15:1, preferably in a range of 3:1 to 9:1. Typically, the nanoparticle-forming compound is a poly-lysine peptide such as K16 peptide. Preferred is the method wherein the nucleic acid is a plasmid DNA, at least encoding for a Cas, preferably Cas9 (SEQ ID NO: 1), and optionally also encoding for the gRNA, and wherein the nanoparticles comprise in addition to the plasmid DNA at least one poly-lysine peptide, preferably poly-lysine K16 peptide (poly-lysine peptide consisting of sixteen lysine residues). Alternatively, the poly-lysine peptide is a peptide consisting of 8-25 lysine residues, preferably 10-20, more preferably 12-18. High in vitro transfection efficiency is obtained with the method of the invention when nanoparticles encompassing plasmid DNA, K16 peptide are prepared and applied, and are contacted with cells in the presence of a saponin selected from GE1741 and SO1861, and preferably the saponin is GE1741. Typically, the saponin concentration during transfection of the plasmid DNA into selected target cells in vitro is 1 μg/mL-5 μg/mL, preferably 2-4 μg/mL. […] Cells are typically contacted with a composition comprising the nanoplexes and a separate composition comprising the saponin, preferably GE1741. Thus, typically, the nanoparticles comprise the poly-lysine peptide and the nucleic acid, for example at least a plasmid DNA encoding for a Cas, preferably Cas9 (SEQ ID NO: 1), or a Cas with at least 90% sequence identity with this Cas9, preferably 90-99.5% sequence identity, such as 92%, 93%, 94%, 95% or 95-99%.

[2] = test system: GFP-expressing Neuro-2A-GFP-cells; assay: GFP-knockout via Cas9/gRNA(GFP) nanoplexes, FITC-H flow cytometry; format: cell-based, murine; conditions: for cells not considered fluorescent: GE1741-co-application
Method: FIG. 6A-E. GFP-Knockout of GFP-expressing Neuro-2A-GFP-cells via PDD (Cas9-DNA, gRNA (GFP)-DNA)-nanoplexes±saponin administration (co-transfection). GFP expressing Neuro-2A-cells were transfected via co-transfection of Cas9-DNA-plasmid and gRNA (GFP)-DNA-plasmid in a ratio of 4:0.5:0:5, with 500 ng of each DNA/well and 4.000 ng poly-lysine K16 peptide perwell. […] With saponin-Co-administration, the FITC-H was decreased by 10% (FIG. 6D) and the amount of cells not considered “fluorescent” compared to negative control, was increased by 7.5% (FIG. 6E).; n 3. FIG. 6A: FACS results with negative control; FIG. 6B: FACS results with PDD(Cas9-DNA, gRNA(GFP)-DNA), 4:1; FIG. 6C: FACS results of PDD(Cas9-DNA, gRNA(GFP)-DNA), 4:1+GE1741; FIG. 6D: values for the median FITC-H for the test samples of FIG. 6A-C and the control Lipofectamine3000DD(Cas9-DNA); FIG. 6E: amount of non-fluorescent cells in the test samples of FIGS. 6A-C and the control Lipofectamine3000DD(Cas9-DNA).
FIG. 7A-E. GFP-Knockout of GFP-expressing Neuro-2A-cells via PD (Cas9-gRNA (GFP)-DNA)-nanoplexes±saponin administration (All-in-one-transfection). GFP expressing Neuro-2A-cells were transfected via “All-in-one”-transfection of a Cas9-gRNA (GFP)-DNA-plasmid in a ratio of 4:1, 500 ng of each DNA/well. […] FIG. 7A: FACS results with negative control; FIG. 7B: FACS results with PD(Cas9-gRNA(GFP)-DNA, 4:1; FIG. 7C: FACS results of PD(Cas9-gRNA(GFP)-DNA, 4:1+GE1741; FIG. 7D: values for the median FITC-H for the test samples of FIG. 7A-C and for PD(Cas9-gRNA(GFP)-DNA, 8:1 and PD(Cas9-gRNA(GFP)-DNA, 8:1+GE1741; FIG. 7E: amount of non-fluorescent cells in the test samples of FIG. 7A-C and for PD(Cas9-gRNA(GFP)-DNA, 8:1 and PD(Cas9-gRNA(GFP)-DNA, 8:1+GE1741.
After the successful delivery of Cas9-DNA with GFP-driven fluorescence has been established, the inventors next tested the functionality of Cas9-transfections. GFP-expressing Neuro-2A-GFP-cells were therefore acquired. The aim of the test was to show and visualize the knock-out of the GFP-gene with a CRISPR-Cas9-gene knock-out. Therefore, Cas9-DNA (i.e. a plasmid DNA) was, either co-transfected with a gRNA-DNA-plasmid (PDD), or delivered in one plasmid DNA (“All-In-One-Plasmid”) coding for Cas9 and gRNA (PD) and expressing both Cas9 and guide RNA (FIG. 8, FIG. 9). The effect of GE1741-co-application during transfection of the cells was investigated via decrease of fluorescence intensity (FITC-H median & separation of the dot plot in FITC-H & FSC related quarters). […] To improve gene knock-out efficiency, a number of different gRNA-sequences was tested, in order to select the most efficient target sequence for the gRNA. The initially and further applied gRNA-sequences were obtained through a database with efficiency information. For selection of an optimal gRNA sequence, the GFP-gene sequence of the transfected cell line has to be known as many GFP-sequences are available. Further, the gene knock-out requires a sensitive assay, by which minimal changes can be detected. Within promotor-driven highly fluorescing cells, single gene knock-out possibly could not be identified.

CC(=O)OC1C(C)OC(OC2C(C)OC(OC(=O)C34CCC(C)(C)CC3C3=CCC5C6(C)CCC(OC7OC(C(=O)O)C(O)C(OC8OCC(O)C(O)C8O)C7OC7OC(CO)C(O)C(O)C7O)C(C)(C=O)C6CCC5(C)C3(C)CC4O)C(OC3OC(C)C(OC4OCC(O)C(OC5OCC(O)C(O)C5O)C4O)C(O)C3O)C2O)C(O)C1OC(C)=O (centres unmarked) [GE1741]
highest non-toxic saponin Co-administration [1]: 2 µg/mL | cells successfully transfected with Cas9-DNA [2]: 30% | cells not considered fluorescent ([2]; All-In-One-Plasmid (PD)): 11% | FITC-H median change (in words) ([2]; All-in-one PD (Cas9-gRNA(GFP)-DNA)): No FITC-H could be observed | amount of cells considered fluorescent, elevated by ([2]; All-in-one PD (Cas9-gRNA(GFP)-DNA), PD mass ratio 8:1): 11% | decrease of FITC-H median ([2]; co-transfection PDD (Cas9-DNA, gRNA(GFP)-DNA) 4:0.5:0.5, with saponin): 10% | increase of cells not considered fluorescent compared to negative control ([2]; co-transfection PDD (Cas9-DNA, gRNA(GFP)-DNA), with saponin): 7.5% | cells not considered fluorescent ([2]; co-transfection with gRNA-DNA-plasmid (PDD)): 10%
